# Laboratory results: PMC11591356, “Immunomodulatory Effects of the Tobacco Defensin NaD1” (Antibiotics, 2024)
# Several values for one entry are separate records, joined by “and”; a condition that tells them apart may be missing. Equal entries are not always repeated. Ends that are not written are not given here.
# Key:
# [1] = tested on: immature monocyte-derived dendritic cells (moDC); experiment: Multiplex xMAP assessment of cytokine production by immature monocyte-derived dendritic cells; assay type: cell-based, human
# Procedure: Immature monocyte-derived dendritic cells (moDC) were obtained from primary monocytes by a differentiation protocol involving a cytokine cocktail with IL-4 and GM-CSF [38]. For this, the monocytes were cultured in complete RPMI-1640 containing 10% HS, 1×AA solution, 500 U/mL rhIL-4 (Sci-Store, Moscow, Russia) and 800 U/mL rhGM-CSF (Sci-Store) for 3 days. Then, the cells were re-fed with the fresh medium with rhIL-4 and rhGM-CSF and cultured for 4 more days.
# For the study of the immunomodulatory properties of NaD1, monocytes and immature dendritic cells (moDC) were seeded into the wells of a 24-well plate at densities of 4 × 10^5 and 1.3 × 10^5 cells per well, respectively, in complete RPMI-1640 with 10% HS and AA solution. Then, 24 h later, the culture medium was replaced by a fresh one either with 2 μM NaD1 for stimulation of the cells or without if for the control wells. The cultures were kept in a humidified CO2-intubator for 24 h and then the samples of the culture media were taken and frozen.
# The absolute levels of 48 cytokines, chemokines and growth factors were determined at a protein level by multiplex xMAP technology (Luminex, Austin, TX, USA). For this, a MILLIPLEX Human Panel A kit (HCYTA-60K-PX48, Merck, Darmstadt, Germany) was used and the following 48 analytes were evaluated in two biological replications: sCD40L, EGF, CCL11/Eotaxin-1, FGF-basic/FGF-2, Flt-3 ligand, CX3CL1/Fractalkine, G-CSF, GM-CSF, GROα, IFNα2, IFN-γ, IL-1α, IL-1β, IL-1RA, IL-2, IL-3, IL-4, IL-5, IL-6, IL-7, CXCL8/IL-8, IL-9, IL-10, IL-12(p40), IL-12(p70), IL-13, IL-15, IL-17A/CTLA8, IL-17E/IL-25, IL-17F, IL-18, IL-22, IL-27, CXCL10/IP-10, CCL2/MCP-1, CCL7/MCP-3, M-CSF, CCL22/MDC, CXCL9/MIG, CCL3/MIP-1α, CCL4/MIP-1β, PDGF-AA, PDGF-AB/BB, CCL5/RANTES, TGF-α, TNF-α, TNF-β and VEGF-A. The fluorescent data were obtained on a MAGPIX system (Merck) operated with xPONENT 4.2 software (Merck). Final analysis was performed in MILLIPLEX Analyst v5.1 software (Merck).
# [2] = tested on: human smooth muscles (CASMC); parameters: method as in PMID 28179997; conditions: read-out: IC50, MTT cell viability assay; cited from earlier work
substance,measurement,setting,value
"NaD1: Recombinant tobacco floral defensin NaD1 (UNIPROT Q8GTM0), obtained by heterologous expression in E. coli; FITC-labeled in the permeability assay (RECKTESNTFPGICITKPPCRKACISEKFTDGHCSKILRRCLCTKPC; cysteine pairing not given here; also: FITC label; UniProt Q8GTM0 26-72, looked up)",sCD40L absolute level,"[1]; immature moDCs + 2 μM NaD1, 24 h, two biological replications, untreated control 116.89",92.12 pg/mL
same,IL-2 absolute level,"[1]; moDCs + 2 μM NaD1, 24 h, control 0.51",<0.35↓ pg/ml
same,IFNg absolute level,"[1]; moDCs + 2 μM NaD1, 24 h, control 0.81",<0.61↓ pg/ml
same,IL-18 absolute level,"[1]; moDCs + 2 μM NaD1, 24 h, control 1.17",0.78 pg/mL
same,IL-10 absolute level,"[1]; moDCs + 2 μM NaD1, 24 h, control 1.76",<1.29↓ pg/ml
same,IL-6 absolute level,"[1]; moDCs + 2 μM NaD1, 24 h, control 1.92",0.85 pg/mL
same,IL-9 absolute level,"[1]; moDCs + 2 μM NaD1, 24 h, control 2.31",0.83 pg/mL
same,IP-10 absolute level,"[1]; moDCs + 2 μM NaD1, 24 h, control 2.51",2.51 pg/mL
same,GM-CSF absolute level,"[1]; moDCs + 2 μM NaD1, 24 h, control 3.8",2.87 pg/mL
same,IL-4 absolute level,"[1]; moDCs + 2 μM NaD1, 24 h, control 4.21",4.38 pg/mL
same,GROa absolute level,"[1]; moDCs + 2 μM NaD1, 24 h, control 5.3",2.88 pg/mL
same,EGF absolute level,"[1]; moDCs + 2 μM NaD1, 24 h, control 5.38",3.12 pg/mL
same,TGF-a absolute level,"[1]; moDCs + 2 μM NaD1, 24 h, control 6.04",4.68 pg/mL
same,IL-12 (p40) absolute level,"[1]; moDCs + 2 μM NaD1, 24 h, control 6.14",<2.07↓ pg/ml
same,G-CSF absolute level,"[1]; moDCs + 2 μM NaD1, 24 h, control 6.59",6.59 pg/mL
same,IL-13 absolute level,"[1]; moDCs + 2 μM NaD1, 24 h, control 10.99",<2.24↓ pg/ml
same,IL-1b absolute level,"[1]; moDCs + 2 μM NaD1, 24 h, control 12.11",5.8 pg/mL
same,IL-1a absolute level,"[1]; moDCs + 2 μM NaD1, 24 h, control 12.13",15.76 pg/mL
same,IFNa2 absolute level,"[1]; moDCs + 2 μM NaD1, 24 h, control 13.22",7.1 pg/mL
same,PDGF-AA absolute level,"[1]; moDCs + 2 μM NaD1, 24 h, control 14.68",12.15 pg/mL
same,Fractalkine absolute level,"[1]; moDCs + 2 μM NaD1, 24 h, control 26.94",20.9 pg/mL
same,TNFa absolute level,"[1]; moDCs + 2 μM NaD1, 24 h, control 45.9",30.64 pg/mL
same,MCP-3 absolute level,"[1]; moDCs + 2 μM NaD1, 24 h, control 62.22",44.12 pg/mL
same,MIP-1a absolute level,"[1]; moDCs + 2 μM NaD1, 24 h, control 62.72",35.36 pg/mL
same,MIG absolute level,"[1]; moDCs + 2 μM NaD1, 24 h, control 76.28",16.72 pg/mL
same,FGF-2 absolute level,"[1]; moDCs + 2 μM NaD1, 24 h, control 78.9",71.22 pg/mL
same,IL-27 absolute level,"[1]; moDCs + 2 μM NaD1, 24 h, control 80.06",68.79 pg/mL
same,M-GSF absolute level,"[1]; moDCs + 2 μM NaD1, 24 h, control 101.68",45.07 pg/mL
same,IL-1RA absolute level,"[1]; moDCs + 2 μM NaD1, 24 h, control 199.63",133 pg/mL and 133.58 pg/mL
same,MIP-1b absolute level,"[1]; moDCs + 2 μM NaD1, 24 h, control 204.09",120 pg/mL and 120.19 pg/mL
same,MCP-1 absolute level,"[1]; moDCs + 2 μM NaD1, 24 h, control 514.13",288 pg/mL and 288.04 pg/mL
same,MDC absolute level,"[1]; moDCs + 2 μM NaD1, 24 h, control 1484",1278 pg/mL
same,IL-8 absolute level,"[1]; moDCs + 2 μM NaD1, 24 h, control 1856",1037 pg/mL
same,IL-7 absolute level,"[1]; moDCs + 2 μM NaD1, 24 h, control <0.32",<0.32↓ pg/ml
same,IL-5 absolute level,"[1]; moDCs + 2 μM NaD1, 24 h, control <0.33",<0.33↓ pg/ml
same,FLT-3L absolute level,"[1]; moDCs + 2 μM NaD1, 24 h, control <0.61",<0.61↓ pg/ml
same,RANTES absolute level,"[1]; moDCs + 2 μM NaD1, 24 h, control <0.73",<0.73↓ pg/ml
same,IL-3 absolute level,"[1]; moDCs + 2 μM NaD1, 24 h, control <0.77",<0.77↓ pg/ml
same,TNFb absolute level,"[1]; moDCs + 2 μM NaD1, 24 h, control <0.78",<0.78↓ pg/ml
same,IL-17A absolute level,"[1]; moDCs + 2 μM NaD1, 24 h, control <1.00",<1.00↓ pg/ml
same,VEGFa absolute level,"[1]; moDCs + 2 μM NaD1, 24 h, control <1.44",<1.44↓ pg/ml
same,IL-12 (p70) absolute level,"[1]; moDCs + 2 μM NaD1, 24 h, control <1.79",<1.79↓ pg/ml
same,IL-15 absolute level,"[1]; moDCs + 2 μM NaD1, 24 h, control <1.84",<1.84↓ pg/ml
same,Eotaxin absolute level,"[1]; moDCs + 2 μM NaD1, 24 h, control <3.80",<3.80↓ pg/ml
same,PDGF-AB/BB absolute level,"[1]; moDCs + 2 μM NaD1, 24 h, control <5.75",<5.75↓ pg/ml
same,IL-22 absolute level,"[1]; moDCs + 2 μM NaD1, 24 h, control <9.00",<9.00↓ pg/ml
same,IL-17F absolute level,"[1]; moDCs + 2 μM NaD1, 24 h, control <16.98",<16.98↓ pg/ml
same,IL-17E/IL-25 absolute level,"[1]; moDCs + 2 μM NaD1, 24 h, control <25.82",<25.82↓ pg/ml
same,IC50,[2],~10 µM
